Test results taken from US11248995B2, “Hydrogel encapsulation of living organisms for long-term microscopy” (priority 2017, dated 2022).
Counter-ions that a name gives are not always drawn.

Tests used:
AWA activity = assay: Nemadipine-A treatment of multi-well plate embedded animals, optogenetically-evoked calcium responses; assay type: in vivo, C. elegans; details: 10, 50, 100 uM vs 1% DMSO control, stimulated every 10 min for 24 hours; dose dependence
Experimental: A small volume (10 uL) of PEG hydrogel solution (10% with 0.5×S. basal) with photoinitiator was pipetted into each PCR tube (one tube per one well). Young adult animals (CX16573) were transferred into the hydrogel solution by worm pick (up to 40 or more). The hydrogel and worm solution was transferred from one PCR tube to the bottom of one well of a 384 well plate, and repeated for as many PCR tubes prepared. The 384 well plate was placed into −20° C. freezer for no more than 10 min, then immediately placed on the 308 nm light source to crosslinking for no more than 45 s. Then, a small volume (60 uL) of 1 mM ATR in water was pipetted into crosslinked wells, covered, placed in the dark, and allowed to incubate for at least 1 hr, or up to 24 hrs. Animals were then imaged on a custom designed microscope and optical configuration allowing for both red-light excitation and blue-light excitation sent through the objective, all set by the initial experimental settings. Red light pulse durations, well position, cycle number and cycle delay conditions were set by a custom MicroManager script, and executed.
After crosslinking and before all-trans retinal (ATR) transfer to each well, solutions of 10 μM, 50 μM, and 100 μM nemadipine-A to a final concentration of 1% DMSO in 1 mM ATR were prepared. A control well containing only 1% DMSO in 1 mM ATR was prepared as well. […]

AWA sensory neuron pair = assay: Microfluidic chemical pulse stimulation of hydrogel-embedded C. elegans, GCaMP light sheet imaging; assay type: in vivo; details: 5-s and 10-s pulses
Description: Wild-type C. elegans expressing GCaMP in the AWA sensory neuron pair were encapsulated in a hydrogel disk above a 100 μm wide microfluidic channel. External tubing connections and valves delivered 1, 5, or 10 second long pulses of chemical flow beneath the hydrogel disk. Small molecule chemicals (MW<500 Da) diffuse rapidly through the hydrogel, typically in under 1 second, to reach the encapsulated organism(s).

C. elegans [1] = assay: Quantification of movement of hydrogel-embedded animals; assay type: in vivo
Experimental: Young adult QW1217 worms with pan-neuronal expression of nuclear-localized mCherry were embedded in 10% and 20% PEG hydrogels (3 μL with 100 μm spacer, 0.1% I2959, 20 s exposure using a 312 nm UV source). Worms received either no pretreatment, exposure to hypoosmotic (diH2O, 0 mOsm) or hyperosmotic buffers (0.5 M glycerol in diH2O, 500 mOsm or 1.5×S-Basal, 420 mOsm) for 10 min, or cooling in a −20° C. freezer or in contact with ice for 1-3 min prior to crosslinking. PEG hydrogel solutions were prepared in diH2O or S-Basal buffer, and some contained the paralytic reagents 25 mM sodium azide (Massie et al., 2003) or 1 mM tetramisole hydrochloride (Sigma) (Larsch et al., 2013). Other hydrogel solutions were prepared in 500 mM glycerol or 1.5×S-Basal hyperosmotic buffers. After crosslinking, all hydrogels were submerged in an aqueous solution of either S-Basal, diH20, sodium azide (25 mM) or tetramisole (1 mM) for imaging. Videos were captured with a Hamamatsu Orca-Flash 4.0 camera at 1 frame/sec for 3 min on a Zeiss AxioObserver inverted epifluorescence microscope with a 20×/0.5 NA objective.
Animal movement was analysed by comparing frame-to-frame image differences. Movement index is described using the equation M.I.=ΔIROI/IROI−IBG, where ΔIROI represents the difference in pixel intensity between consecutive frames, averaged across a region of interest (ROI), IROI represents the average intensity of the ROI, and IBG represents the average intensity of a Background region. […] First, the absolute value differences between each pair of consecutive frame averaged pixel intensities were calculated. Next, the difference image stack was smoothed (average of its 3×3 neighborhood). To reduce the contribution of pixel noise, a value of 10 (corresponding to average pixel noise) was subtracted uniformly from each frame and negative values were set to 0. Regions of Interest (ROIs) were selected over the head (nerve ring) and ventral cord and a background region (BG). The movement index was calculated as […], where ΔIROI is the mean of difference images across the ROI, and ΔIROI and IBG, are the mean intensity of the ROI and background regions for the first frame, respectively. Here, identical sequential frames would have a M.I. of zero, whereas images that have changes in position, rotation, focus, or intensity have increasing M.I. values.
Movement in the image plane was quantified by tracking cell nucleus position over 3 minutes. Individual neurons were tracked using NeuroTracker (Larsch et al., 2013) and centroid positions were used to determine the range of axial movement by the animal.

C. elegans [2] = details: 25 mM sodium azide, agarose pad
Experimental: For hydrogel encapsulation, 5 μL of a 10% PEG hydrogel with 0.1% I2959 containing late L1/L2 stage animals was placed on a fluorinated glass slide with 50 μm thick tape spacers, polymerized with 312 nm UV light, and imaged on an upright Zeiss Axioskop microscope with a 100×/1.4 NA objective using DIC optics. Images were captured every hour for 12 hours without movement of the sample. For comparison, animals were mounted onto conventional agarose pads with chemical or physical restraint. […] Animals were picked into this droplet and a cover slip was placed on top before imaging. Alternatively, a 0.25-0.5 μL drop of polystyrene nanobeads (100 nm, Polysciences, Inc.) was placed on a 10% agarose pad prior to adding animals, a cover slip, and imaging.

[3] = tested on: AWA chemosensory neuron calcium responses; assay: Automated small-molecule screening of optogenetically-evoked calcium activity suppressors (LOPAC library); assay type: in vivo, C. elegans; details: 10 μM, 1% DMSO, about 18 hours exposure; beyond mean ± 3 standard deviations
Experimental: For all well plate experiments, equal parts of 20% PEGDA (0.1% Irgacure) was added to a synchronized animal population in M9, resulting in ˜5 an/μL, 10% PEGDA, 0.05% Irgacure, and 0.5×M9. […] Both procedures used repeated mixing (4-5×) to maintain an even animal suspension during transfer. The animal-containing multiwell plate was transiently cooled for 10 min at −20° C. to settle animals at the bottom of the well, then immediately exposed to 308 nm UV light to photo-crosslink and embed the animals. Single wells can also be prepared by standard picking and transfer of animals to a final 10% gel solution (using PCR tubes), depending on experimental design or desired throughput.
Aliquoted LOPAC drug library plates were received from the UMMS small-molecule screening facility as 16 individual 96-well plates containing 3 nmol of compound per well (3 μL of 1 mM in 100% DMSO), stored at −80° C. until use. […]
A suite of custom ImageJ macros was developed for automated neuron selection and trace recording (aNT), or to manually select neurons (neuronPos) and then record calcium intensity in each well across all wells and cycles automatically (NT). […] Local background subtracted fluorescence (F) was calculated as F=(FR−Fbg).

[4] = hyper-osmotic solution (0.5 M glycerol 500 mOsm or 1.5x S-Basal 420 mOsm) 10 min prior to or during crosslinking, imaged in S-Basal buffer

## CCOC(=O)C1=C(C)NC(C)=C(C(=O)OCC)C1c1c(F)c(F)c(F)c(F)c1F [Nemadipine-A]
AWA activity
  Peak calcium response (change in fluorescence) of AWA: reduction in peak response

## CC(=O)C(C)=O [diacetyl]
AWA sensory neuron pair
  AWA neuron response (relative integrated fluorescence) to odor stimulation: stimulated one of the two neurons

## OCC(O)CO [glycerol]
C. elegans [1]; [4]
  Movement index (M.I.): 0.02±0.007
  Range of movement over 3 min: 8±7 μm

## [N-]=[N+]=[N-] [sodium azide]
C. elegans [2]
  Cell death in paralyzed animals: characteristics of necrotic cell death after 6 hours
C. elegans [1]; 20% PEG hydrogels, paralytic vs no paralytic, P<0.0001
  Reduction of movement index: 5 fold
C. elegans [1]; C. elegans embedded in 20% PEG hydrogels, mean over 3 min, 25 mM sodium azide or 1 mM tetramisole during gelation or transiently after encapsulation, hydrogel alone without paralytic
  Movement index (M.I.): 0.07±0.01
C. elegans [1]; C. elegans embedded in 20% PEG hydrogels, 25 mM sodium azide or 1 mM tetramisole, hydrogel alone without paralytic
  Movement (displacement range) over 3 minutes: 18 μm

## c1ccc(C2CN3CCSC3=N2)cc1 (stereo not drawn) [tetramisole, tetramisole hydrochloride]
C. elegans [1]; in vivo
  Movement (displacement range) over 3 minutes: 19 μm
  Movement index (M.I.): 0.06±0.02
  Reduction of movement index: 5 fold

## ivermectin
[3]
  Screen result: relative peak ΔF/F0 calcium response, fold change cycle 4 to 1: positive hits
